BindingDB's records for doi:10.1016/s0960-894x(98)00691-x (Novartis Pharmaceuticals, 1999)

Assay: Inhibition of Cyclin-dependent kinase 1, CDK1-related human bladder carcinoma (T24) cell proliferation

CCn1cnc2c(Nc3cccc(Cl)c3)nc(N[C@H]3CC[C@@H](O)CC3)nc21 [4-[6-(3-Chloro-phenylamino)-9-ethyl-9H-purin-2-ylamino]-cyclohexanol]
IC50: 830 nM
